Holding throughout (format): cell-based
Experiment [1] concerns PRMT5 (SDMA) in HAP1 MTAP-deleted cell line. In words: SDMA in-cell western assay, HAP1 MTAP-deleted cell line. Conditions: for IC50 / IC90: Homo sapiens, SDMA in-cell western, HAP1 MTAP-deleted (MTAP-null) cell line; for Hap1 MTAP intact/deleted ratio: ratio of SDMA in-cell western IC50 in HAP1 MTAP-intact to IC50 in HAP1 MTAP-deleted cell line. The source says: (§1) HAP1 MTAP-intact is a cell line in which endogenous levels of MTAP are expressed, and HAP1 MTAP-deleted is an MTAP-null cell line.

Experiment [2] relates to HAP1 MTAP-deleted cell line. In words: viability assay for the MTAP-deleted cell line. The conditions noted are these: Homo sapiens.
The subject of experiment [3] is PRMT5 (SDMA) in HAP1 MTAP-intact cell line. Briefly: SDMA in-cell western assay, HAP1 MTAP-intact cell line. Conditions: Homo sapiens, HAP1 MTAP-intact cell line (endogenous MTAP), read-out: Hap 1 MTAP intact IC50.
Excerpt: as §1

In the case of `Cc1cc(NC(=O)C(=O)N2C[C@@H](C)N(C(=O)C3(C(F)(F)F)CC3)C[C@@H]2c2cccs2)cnc1N` [Compound 111, N-(6-amino-5-methyl-3-pyridyl)-2-[(2R,5R)-5-methyl-2-(2-thienyl)-4-[1-(trifluoromethyl)cyclopropanecarbonyl]piperazin-1-yl]-2-oxo-acetamide], in experiment [1], the IC50 (usually the midpoint of a concentration-inhibition curve) was less than 0.005 µM, the IC90 (commonly the concentration needed for an effect of 90%) lay in the range of 0.075 to 0.125 µM and the “Hap1 MTAP intact/deleted ratio” value is “C (an IC50 ratio of less than 15 fold)”. The molecule also yielded an IC50 in experiment [2] of less than 0.1 µM. In addition, in experiment [3], the IC50 lay within 0.005 to 0.05 µM.
In the case of `C[C@@H]1CN(C(=O)C(=O)Nc2cnc(N)c(C3CC3)c2)[C@@H](c2ccc(F)cc2)CN1C(=O)C1(C(F)(F)F)CC1` [Compound 112, N-(6-amino-5-cyclopropylpyridin-3-yl)-2-((2S,5R)-2-(4-fluorophenyl)-5-methyl-4-(1-(trifluoromethyl)cyclopropanecarbonyl)piperazin-1-yl)-2-oxoacetamide], in experiment [1], the half-maximal inhibitory concentration (IC50) is 0.005 to 0.05 µM, the IC90 was 0.075 to 0.125 µM and the “Hap1 MTAP intact/deleted ratio” value is “C (an IC50 ratio of less than 15 fold)”. For the same molecule, the half-inhibitory concentration (IC50) in experiment [2] was less than 0.1 µM. Besides, in experiment [3], the IC50 was greater than 0.05 µM.
Turning to `CC(C)C(=O)N1C[C@H](c2cccc(N3CCN(C)CC3)c2)N(C(=O)C(=O)Nc2cncc3cn[nH]c23)C[C@H]1C` [Compound 113, 2-((2S,5R)-4-isobutyryl-5-methyl-2-(3-(4-methylpiperazin-1-yl)phenyl)piperazin-1-yl)-2-oxo-N-(1H-pyrazolo[4,3-c]pyridin-7-yl)acetamide], the figures for the IC50 in experiment [1], in experiment [2] and in experiment [3] were 0.005 to 0.05 µM, less than 0.1 µM and greater than 0.05 µM, respectively. In experiment [1], this molecule displayed a concentration for an effect of 90% (IC90) greater than 0.125 µM. For the same molecule, in experiment [1], the “Hap1 MTAP intact/deleted ratio” value is “C (an IC50 ratio of less than 15 fold)”.
Consider `CC(C)C(=O)N1C[C@@H](c2ccc(F)cc2)N(C(=O)C(=O)Nc2cnc(N)c(C3CC3)c2)C[C@@H]1C` [Compound 115, N-(6-amino-5-cyclopropyl-3-pyridyl)-2-[(2R,5S)-2-(4-fluorophenyl)-5-methyl-4-(2-methylpropanoyl)piperazin-1-yl]-2-oxo-acetamide], for which the IC50 is greater than 0.05 µM in experiment [1], greater than 1 µM in experiment [2] and greater than 0.05 µM in experiment [3]. Further, the IC90 in experiment [1] was greater than 0.125 µM. In addition, the “Hap1 MTAP intact/deleted ratio” value in experiment [1] was “C (an IC50 ratio of less than 15 fold)”.
On to `CCc1cc(NC(=O)C(=O)N2C[C@@H](C)N(C(=O)C3(C(F)(F)F)CC3)C[C@@H]2c2ccc(F)cc2)cnc1N` [Compound 116, N-(6-amino-5-ethylpyridin-3-yl)-2-((2S,5R)-2-(4-fluorophenyl)-5-methyl-4-(1-(trifluoromethyl)cyclopropanecarbonyl)piperazin-1-yl)-2-oxoacetamide], for which the half-inhibitory concentration (IC50) in experiment [1] was less than 0.005 µM; in experiment [2], less than 0.1 µM; in experiment [3], greater than 0.05 µM. The same molecule yielded a concentration for an effect of 90% (IC90) in experiment [1] of less than 0.075 µM. Besides, the “Hap1 MTAP intact/deleted ratio” value in experiment [1] was “A (an IC50 ratio greater than or equal to 30 fold)”.
As to `Cc1cc(NC(=O)C(=O)N2C[C@@H](C)N(C(=O)C(C)C)C[C@@H]2c2cccc(N3CCN(C)CC3)c2)cnc1N` [Compound 117, N-(6-amino-5-methylpyridin-3-yl)-2-((2S,5R)-4-isobutyryl-5-methyl-2-(3-(4-methylpiperazin-1-yl)phenyl)piperazin-1-yl)-2-oxoacetamide], in experiment [1], the IC50 fell in the range of 0.005 to 0.05 µM, the IC90 is less than 0.075 µM and the “Hap1 MTAP intact/deleted ratio” value is recorded as “C (an IC50 ratio of less than 15 fold)”. Besides, the half-maximal inhibitory concentration (IC50) in experiment [2] was less than 0.1 µM. For the same molecule, in experiment [3], the IC50 is 0.005 to 0.05 µM.
Regarding `Cc1cc(NC(=O)C(=O)N2C[C@@H](C)N(C(=O)C3(C(F)(F)F)CC3)C[C@@H]2c2ccc(Cl)c(Cl)c2)cnc1N` [Compound 119, N-(6-amino-5-methylpyridin-3-yl)-2-((2S,5R)-2-(3,4-dichlorophenyl)-5-methyl-4-(1-(trifluoromethyl)cyclopropanecarbonyl)piperazin-1-yl)-2-oxoacetamide], in experiment [1], the IC50 was 0.005 to 0.05 µM, the 90% effect concentration (IC90) fell in the range of 0.075 to 0.125 µM and the “Hap1 MTAP intact/deleted ratio” value is recorded as “C (an IC50 ratio of less than 15 fold)”. For the same molecule, the half-inhibitory concentration (IC50) in experiment [2] is less than 0.1 µM. Moreover, the 50% inhibitory concentration (IC50) in experiment [3] is greater than 0.05 µM.
Regarding `Cc1cc(NC(=O)C(=O)N2C[C@@H](C)N(C(=O)OC3(C)CC3)C[C@@H]2c2ccc(F)cc2)cnc1N` [Compound 120], the half-maximal inhibitory concentration (IC50) in experiment [1] was 0.005 to 0.05 µM; in experiment [2] it was 0.1 to 1 µM; in experiment [3] it was greater than 0.05 µM. The molecule also had an IC90 in experiment [1] of 0.075 to 0.125 µM. The “Hap1 MTAP intact/deleted ratio” value in experiment [1] was “B (an IC50 ratio greater than or equal to 15 fold but lower than 30 fold)”.
In the same order, the values of `CCc1cc(NC(=O)C(=O)N2C[C@@H](C)N(CC(C)(C)C)C[C@@H]2c2ccccc2)cnc1N` [Compound 121, N-(6-amino-5-ethylpyridin-3-yl)-2-((2S,5R)-5-methyl-4neopentyl-2-phenylpiperazin-1-yl)-2-oxoacetamide] are 0.005 to 0.05 µM, less than 0.1 µM, greater than 0.05 µM, 0.075 to 0.125 µM and “B (an IC50 ratio greater than or equal to 15 fold but lower than 30 fold)”.
Take `CC(C)CN1C[C@H](c2ccccc2)N(C(=O)C(=O)Nc2cnc(N)c(C3CC3)c2)C[C@H]1C` [Compound 122, N-(6-amino-5-cyclopropylpyridin-3-yl)-2-((2S,5R)-4-isobutyl-5-methyl-2-phenylpiperazin-1-yl)-2-oxoacetamide]: in experiment [1], the half-maximal inhibitory concentration (IC50) fell in the range of 0.005 to 0.05 µM, the IC90 is greater than 0.125 µM and the “Hap1 MTAP intact/deleted ratio” value is given as “B (an IC50 ratio greater than or equal to 15 fold but lower than 30 fold)”. In experiment [2], this molecule had an IC50 of less than 0.1 µM. In experiment [3], the IC50 was greater than 0.05 µM.
As to `C[C@@H]1CN(C(=O)C(=O)Nc2cncc3[nH]ncc23)[C@@H](c2ccc(F)cc2)CN1C(=O)C(C)(C)C` [Compound 125, 2-[(2R,5R)-4-(2,2-dimethylpropanoyl)-2-(4-fluorophenyl)-5-methyl-piperazin-1-yl]-2-oxo-N-(^1H-pyrazolo[3,4-c]pyridin-4-yl)acetamide], the IC50 in experiment [1] is 0.005 to 0.05 µM; in experiment [2], 0.1 to 1 µM; in experiment [3], greater than 0.05 µM. In addition, the concentration for an effect of 90% (IC90) in experiment [1] is less than 0.075 µM. In experiment [1], the “Hap1 MTAP intact/deleted ratio” value is reported as “A (an IC50 ratio greater than or equal to 30 fold)”.
In the same order, the values of `CC(C)C(=O)N1CCN(C(=O)C(=O)Nc2cnc(N)c3cn[nH]c23)[C@@H](c2ccccc2)C1` [Compound 126, (S)—N-(4-amino-1H-pyrazolo[4,3-c]pyridin-7-yl)-2-(4-isobutyryl-2-phenylpiperazin-1-yl)-2-oxoacetamide] are less than 0.005 µM, 0.1 to 1 µM, greater than 0.05 µM, less than 0.075 µM and “A (an IC50 ratio greater than or equal to 30 fold)”.
In the same order, the values of `C[C@@H]1CN(C(=O)C(=O)Nc2cnc(N)c(C3COC3)c2)[C@@H](c2ccccc2)CN1C(=O)C(C)(C)C` [Compound 127, N-(6-amino-5-(oxetan-3-yl)pyridin-3-yl)-2-((2S,5R)-5-methyl-2-phenyl-4-pivaloylpiperazin-1-yl)-2-oxoacetamide] are 0.005 to 0.05 µM, less than 0.1 µM, 0.005 to 0.05 µM, less than 0.075 µM and “C (an IC50 ratio of less than 15 fold)”.

Values taken from US20250282749A1 (Tango Therapeutics, Inc., priority 2022, published 2025).
